Results published in paper PMC12335538 (2025).

Test system: 62 CA8 (RNA, riboswitch) GGAGACCGAAAGCUGGGGACGACCCCAGAAAGACCAAAAGCUGGGGACGACCCCAGAAAGACCGA
Assay: in-line probing
Conditions: 20 mM MgCl2, 100 mM KCl; 50 mM Tris pH 8.3, room temperature, 48 h; apparent; mean of three replicates; Hill 1.50 ± 0.3

## N=C(N)N
  KD: 111 ± 3 µM
